# Article PMC2873112 (Chembiochem : a European journal of chemical biology, 2010)
# Experiments:
# [1] = molecular target: T1, Cop6 (Coprinopsis cinerea, UniProt A8NCK5, N224D); test: product profile by GC-MS; format: biochemical; details: turnover only
# [2] = molecular target: T1, Cop6; test: product analysis by chiral GC-MS; format: biochemical; details: purified mutant; turnover only
# T1 sequence (A8NCK5 whole entry N224D): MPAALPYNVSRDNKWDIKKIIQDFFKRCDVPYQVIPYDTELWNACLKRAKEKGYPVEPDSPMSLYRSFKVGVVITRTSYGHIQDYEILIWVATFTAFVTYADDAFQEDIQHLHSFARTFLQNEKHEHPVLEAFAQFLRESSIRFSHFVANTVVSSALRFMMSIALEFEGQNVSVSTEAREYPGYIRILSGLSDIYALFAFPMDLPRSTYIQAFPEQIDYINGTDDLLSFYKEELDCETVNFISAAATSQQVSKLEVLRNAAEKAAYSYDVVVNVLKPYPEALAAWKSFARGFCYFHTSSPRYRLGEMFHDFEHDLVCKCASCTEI
SMILES,product profile by GC-MS [1],product analysis by chiral GC-MS [2]
"CC(C)=CCC/C(C)=C/CC/C(C)=C/COP(=O)(O)OP(=O)(O)O [(E,E)-FPP]","N224D does not affect the product profile of Cop6 with its normal substrate (E,E)-FPP",
"CC(C)=CCC/C(C)=C/CC/C(C)=C\COP(=O)(O)OP(=O)(O)O [(Z,E)-FPP]",,Mutant Cop6N224D now makes a small amount of an additional compound
